Measurements published in patent publication US20110152501A1, “Activatable Imaging Probes” (THE GENERAL HOSPITAL CORPORATION, priority 2001, published 2011).
Non-standard residues stand in square brackets, D forms with d. Primed or numbered codes have the meaning given here. No end group written: not given here. *: point of attachment. FITC = O=C1OC2(c3ccc(O)cc3Oc3cc(O)ccc32)c2ccc(NC(=S)*)cc21; Pip′ = not defined here

Key:
Format in all cases: biochemical
purified thrombin = biological target: T1, purified thrombin (Homo sapiens, UniProt P00734); test: Probe activation with purified thrombin in PBS buffer, NIRF signal over time; conditions: thrombin added to solutions containing thrombin probe and hirudin, compared to hirudin-free solutions
T1 construct: tested with purified thrombin in PBS buffer
Method: The prepared probes were first tested with purified thrombin in PBS buffer as the NIRF signal was recorded over time. […] Following addition of thrombin, NIRF signal increased from 150 AU to 4100 AU within 20 minutes (27 fold increase). […] There was a clear dose response when the probe was incubated with different amounts of thrombin.

thrombin = biological target: T2, thrombin (Homo sapiens, UniProt P00734); test: Enzymatic assay of peptide cleavage by thrombin (HPLC)
T2 construct: tested with purified thrombin in PBS buffer
Excerpt: In contrast, there was no cleavage when the serine at P1′ position was replaced by a proline residue.

MMP-2 [1] = biological target: T3, MMP-2 (Homo sapiens, UniProt P08253); test: Inhibition of MMP-2 mediated probe activation by inhibitors; conditions: 1 mM
T3 construct: purchased Boehringer-Mannheim, Ind
T3 sequence (P08253 110-660): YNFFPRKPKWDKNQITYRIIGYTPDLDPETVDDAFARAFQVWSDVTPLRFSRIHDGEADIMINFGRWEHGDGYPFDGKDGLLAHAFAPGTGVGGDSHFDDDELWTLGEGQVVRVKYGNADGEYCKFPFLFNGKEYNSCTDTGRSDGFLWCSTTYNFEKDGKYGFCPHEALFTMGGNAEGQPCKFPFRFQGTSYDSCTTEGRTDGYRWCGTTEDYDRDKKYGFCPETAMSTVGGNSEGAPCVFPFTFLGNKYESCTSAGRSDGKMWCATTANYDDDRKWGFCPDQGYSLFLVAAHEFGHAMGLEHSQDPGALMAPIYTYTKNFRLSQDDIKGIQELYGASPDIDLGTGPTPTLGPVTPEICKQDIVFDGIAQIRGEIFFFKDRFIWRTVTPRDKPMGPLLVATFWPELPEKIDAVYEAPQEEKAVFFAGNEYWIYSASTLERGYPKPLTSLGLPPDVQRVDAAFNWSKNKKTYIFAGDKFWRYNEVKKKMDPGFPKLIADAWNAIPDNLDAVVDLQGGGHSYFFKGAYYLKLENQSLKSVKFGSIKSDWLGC
Method: Using 5 U of MMP-2 and 19 pmol of imaging probe, we performed a dose response study of mediated MMP inhibition up to 0.1 mM of inhibitor.
To determine the range of enzyme activation, a constant amount of imaging probe (26.6 pmol) was incubated with variable amounts of activated MMP-2 and fluorescence was determined after 24 hours. Inhibition experiments were performed by incubating 1 U of purified, activated MMP-2 with 19 pmol NIRF probe (220 pmol Cy 5.5) in the presence of different inhibitors, 1.10 phenanthroline (1 mM, Aldrich, Milwaukee, Wis.), a Zinc chelator, or a direct MMP-2 inhibitor.

MMP-2 [2] = biological target: T3, MMP-2; test: HPLC analysis of peptide substrates after incubation with MMP-2
Method: The synthesized probes contain a preferential MMP-2 peptide substrate. Two different peptide substrates were used in this study, an MMP-2 cleavable peptide ([…](FITC)C-NH2 (SEQ ID NO:10) (substrate sites are italicized)) and a scrambled control peptide. […] Although the latter control probe has a GVR leader sequence, it is too short to be recognized by MMP-2.
Characterization of probe. A number of experiments were conducted to characterize the peptide substrate and imaging probes. Initially we performed HPLC analysis of peptide and control substrates prior to and after incubation with 1 U of MMP-2. One unit is the activity that hydrolyzes 1 μg of type IV collagen within 1 hour using a commercially available assay (gelatinase 72 kD, Boehringer Mannheim, Indianapolis, Ind.). Reverse phase HPLC (Brownlee, Spheri-5, ODS, 30×4.6 mm), using 0.1% TFA and acetonitrile as elution buffers was performed (Rainin Instruments, Woburn, Mass.). […] The control probe contained the scrambled peptide. To determine the range of enzyme activation, a constant amount of imaging probe (26.6 pmol) was incubated with variable amounts of activated MMP-2 and fluorescence was determined after 24 hours. […]

hirudin
effect on thrombin activation of the thrombin probe (purified thrombin): significantly less NIRF signal

Gly-D-Phe-Pip-Arg-Ser-Gly-Gly-Gly-Gly-Lys(FITC)-Cys-NH2 (G[dF][Pip′]RSGGGGK(FITC)C-NH2) [C-terminal extended peptide]
cleavage by thrombin (thrombin; HPLC): cleaved into two major products

c1cnc2c(c1)ccc1cccnc12 [1,10 phenanthroline]
blocking of fluorescence activation (MMP-2 [1]): completely blocked

Gly-D-Phe-Pip-Arg-Pro-Gly-Gly-Gly-Gly-Lys(FITC)-Cys-NH2
stability against thrombin (thrombin; two hours following incubation with thrombin): remained intact

Gly-Pro-Leu-Gly-Val-Arg-Gly-Lys(FITC)-Cys-NH2 (GPLGVRGK(FITC)C-NH2; N-terminus assumed; SMILES CC(C)C[C@H](NC(=O)[C@@H]1CCCN1C(=O)CN)C(=O)NCC(=O)N[C@H](C(=O)N[C@@H](CCCNC(=N)N)C(=O)NCC(=O)N[C@@H](CCCCNC(=S)Nc1ccc2c(c1)C(=O)OC21c2ccc(O)cc2Oc2cc(O)ccc21)C(=O)N[C@@H](CS)C(N)=O)C(C)C)
cleavage by MMP-2 (MMP-2 [2]): cleavage of the former
